For 17 compounds, inhibition results are on record in patent US8906925B2, “Pyrido[4,3-B]indoles containing rigid moieties” (Medivation Technologies, Inc., priority 2008, dated 2014).

Molecules are shown by their SMILES. Read-outs that look alike come from different tables or passages of the source.

The target of assay [1] is T1, human recombinant serotonin (5-Hydroxytryptamine) 5-HT6 receptor (Homo sapiens, UniProt P50406).
T1 construct: expressed in transfected cells; host or cells: human HeLa cells
Nature of the assay: Serotonin 5-HT6 radioligand binding ([3H]LSD). To be noted: compound at 1 μM; read-out: Inhibition of ligand binding, Serotonin 5-HT6 (percent inhibition of specific binding). The method, then:
Compounds of the invention were incubated with 1.5 nM [3H]Lysergic acid diethylamide (LSD) for 120 min. at 37° C. […] Receptor proteins were filtered and washed, the filters were then counted to determine [3H]LSD specifically bound. Compounds were screened at 1 μM or lower, using 1% DMSO as vehicle. Biochemical assay results are presented as the percent inhibition of specific binding in Table 10.

The target of assay [2] is T2, human recombinant adrenergic α1D receptor (Homo sapiens, UniProt P25100).
T2 construct: expressed in transfected cells; host or cells: human embryonic kidney (HEK-293) cells
T2 sequence (P25100 1-572): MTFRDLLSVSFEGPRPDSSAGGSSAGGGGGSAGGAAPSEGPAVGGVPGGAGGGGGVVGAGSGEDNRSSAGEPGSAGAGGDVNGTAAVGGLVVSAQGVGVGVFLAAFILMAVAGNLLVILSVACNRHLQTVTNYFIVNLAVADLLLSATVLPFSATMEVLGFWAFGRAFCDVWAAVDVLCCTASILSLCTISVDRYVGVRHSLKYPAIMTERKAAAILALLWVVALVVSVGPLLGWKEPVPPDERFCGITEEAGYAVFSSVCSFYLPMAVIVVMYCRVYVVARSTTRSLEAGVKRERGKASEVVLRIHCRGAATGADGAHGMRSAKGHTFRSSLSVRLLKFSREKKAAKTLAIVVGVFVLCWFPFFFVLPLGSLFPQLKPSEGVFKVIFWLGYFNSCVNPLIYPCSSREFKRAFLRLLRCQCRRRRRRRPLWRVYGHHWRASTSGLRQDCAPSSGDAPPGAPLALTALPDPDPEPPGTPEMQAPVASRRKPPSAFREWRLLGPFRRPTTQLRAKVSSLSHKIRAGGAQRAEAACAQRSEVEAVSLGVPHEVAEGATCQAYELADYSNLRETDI
Nature of the assay: Adrenergic α1D radioligand binding ([3H]Prozosin). The method, then:
Compounds of invention were incubated with 0.6 nM [^3H]Prozosin for 60 min. at 25° C. Non-specific binding was estimated in the presence of 10 μM phentolamine. Receptor proteins were filtered and washed, the filters were then counted to determine [^3H]Prozosin specifically bound. Compounds were screened at 1 μM or lower, using 1% DMSO as vehicle. Biochemical assay results are presented as the percent inhibition of specific binding in Table 9.

Assay [3] concerns the target T3, human recombinant serotonin (5-Hydroxytryptamine) 5-HT2A receptor (Homo sapiens, UniProt P28223).
T3 construct: expressed in transfected cells; host or cells: Chinese hamster ovary (CHO-K1) cells
Nature of the assay: Serotonin 5-HT2A radioligand binding ([3H]Ketanserin). Conditions: read-out: Inhibition of ligand binding, Serotonin 5-HT2A (percent inhibition of specific binding), compound at 1 μM. The method, then:
Compounds of the invention were incubated with 0.5 nM [^3H]Ketanserin for 60 min. at 25° C. Non-specific binding was estimated in the presence of 1 μM Mianserin. Receptor proteins were filtered and washed, the filters were then counted to determine [^3H]Ketanserin specifically bound.

Assay [4] addresses T4, human recombinant serotonin (5-Hydroxytryptamine) 5-HT2C receptor (Homo sapiens, UniProt P28335).
T4 construct: expressed in transfected cells; host or cells: Chinese hamster ovary (CHO-K1) cells
T4 sequence (P28335 33-458): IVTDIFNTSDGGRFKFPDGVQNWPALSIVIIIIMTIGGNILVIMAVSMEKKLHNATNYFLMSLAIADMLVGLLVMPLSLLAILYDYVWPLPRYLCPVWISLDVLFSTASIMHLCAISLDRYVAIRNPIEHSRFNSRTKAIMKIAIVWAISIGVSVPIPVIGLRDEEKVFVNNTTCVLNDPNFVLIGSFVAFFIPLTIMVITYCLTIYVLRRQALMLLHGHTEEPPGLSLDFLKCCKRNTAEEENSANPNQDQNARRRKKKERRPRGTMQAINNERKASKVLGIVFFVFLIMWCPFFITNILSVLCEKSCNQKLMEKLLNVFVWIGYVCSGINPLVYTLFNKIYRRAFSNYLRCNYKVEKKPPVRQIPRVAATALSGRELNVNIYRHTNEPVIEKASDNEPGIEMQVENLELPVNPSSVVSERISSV
The assay is described as follows: Serotonin 5-HT2C radioligand binding ([3H]Mesulergine). To be noted: compound at 1 μM; read-out: Inhibition of ligand binding, Serotonin 5-HT2C (percent inhibition of specific binding). A digest of the protocol: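 Compounds tested at 1 μM or lower (1% DMSO vehicle) for displacement of 1 nM [3H]Mesulergine over 60 min at 25° C. Specific binding determined by filtration counting, with 1 μM Mianserin defining non-specific binding; values are percent inhibition.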

The mark [5] stands for this setting: percent inhibition of specific binding, compound at 1 μM, read-out: Inhibition of ligand binding, Adrenergic α1D.

A word on the inhibition: it is the drop in the measured response relative to a control, in per cent.

T3 sequence (P28223 whole entry): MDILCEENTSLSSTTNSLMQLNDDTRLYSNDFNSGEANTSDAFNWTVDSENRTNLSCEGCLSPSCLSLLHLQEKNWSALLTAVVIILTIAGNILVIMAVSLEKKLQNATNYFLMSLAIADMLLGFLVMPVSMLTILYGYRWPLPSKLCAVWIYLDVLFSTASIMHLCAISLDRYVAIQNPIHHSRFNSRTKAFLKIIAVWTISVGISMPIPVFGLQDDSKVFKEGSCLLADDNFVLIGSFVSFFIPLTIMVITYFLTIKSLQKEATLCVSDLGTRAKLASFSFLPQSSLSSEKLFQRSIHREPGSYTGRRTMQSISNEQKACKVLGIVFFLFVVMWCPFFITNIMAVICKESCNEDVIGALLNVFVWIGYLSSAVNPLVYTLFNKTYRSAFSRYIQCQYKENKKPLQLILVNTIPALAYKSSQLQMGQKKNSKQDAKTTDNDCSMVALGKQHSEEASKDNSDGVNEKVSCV
T1 sequence (P50406 whole entry): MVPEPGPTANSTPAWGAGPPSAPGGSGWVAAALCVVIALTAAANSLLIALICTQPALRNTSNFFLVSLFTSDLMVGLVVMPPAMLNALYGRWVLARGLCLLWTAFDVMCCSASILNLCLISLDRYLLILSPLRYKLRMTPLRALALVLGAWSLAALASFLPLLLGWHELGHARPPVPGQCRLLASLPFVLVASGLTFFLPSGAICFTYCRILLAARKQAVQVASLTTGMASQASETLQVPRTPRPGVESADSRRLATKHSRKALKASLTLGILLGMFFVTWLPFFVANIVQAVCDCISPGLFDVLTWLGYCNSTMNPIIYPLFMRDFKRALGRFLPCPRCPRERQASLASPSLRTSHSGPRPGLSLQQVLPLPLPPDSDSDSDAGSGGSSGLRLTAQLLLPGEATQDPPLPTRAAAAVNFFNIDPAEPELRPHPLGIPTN

With `C=C(Cn1c2c(c3cc(Cl)ccc31)CN(C)CC2)c1ccc(OC)c(F)c1` [Compound 140, 8-chloro-5-(2-(3-fluoro-4-methoxyphenyl)allyl)-2,3,4,5-tetrahydro-2-methyl-1H-pyrido[4,3-b]indole], the inhibition at 1 µM in assay [1] is 75%; in assay [2] (setting [5]) it was 84%; in assay [3] it was 98%; in assay [4] it was 98%.

As to `Cc1ccc2c(c1)c1c(n2CC(O)c2ccc(C)nc2)CCN(C)C1` (stereo not drawn) [Compound 48, 2-(2,8-dimethyl-3,4-dihydro-1H-pyrido[4,3-b]indol-5(2H)-yl)-1-(6-methylpyridin-3-yl)ethanol], the inhibition at 1 µM in assay [1] was 59%; in assay [2] (setting [5]), 45%; in assay [3], 73%; in assay [4] it was 67%.

Take `Cc1ccc2c(c1)c1c(n2CC(C)(O)c2ccncc2)CCN(C)C1` (stereo not drawn) [Compound 62, 1-(1,2,3,4-tetrahydro-2,8-dimethylpyrido[4,3-b]indol-5-yl)-2-(pyridin-4-yl)propan-2-ol]: the inhibition at 1 µM in assay [1] was 43%; in assay [2] (setting [5]), 82%; in assay [3] it was 88%; in assay [4] it was 89%.

In the case of `Cc1ccc2c(c1)c1c(n2/C=C/c2ccc(C)nc2)CCN(C)C1` [compound 95, 2,3,4,5-tetrahydro-2,8-dimethyl-5-((E)-2-(6-methylpyridin-3-yl)vinyl)-1H-pyrido[4,3-b]indole], the inhibition at 1 µM in assay [1] came to 71%; in assay [2] (setting [5]), 89%; in assay [3], 91%; in assay [4], 91%.

`COc1ccc(C(C)(O)Cn2c3c(c4cc(Cl)ccc42)CN(C)CC3)cc1` (stereo not drawn) [Compound 57, 1-(8-chloro-1,2,3,4-tetrahydro-2-methylpyrido[4,3-b]indol-5-yl)-2-(4-methoxyphenyl)propan-2-ol]: the inhibition at 1 µM in assay [1] came to 68%; in assay [2] (setting [5]), 84%; in assay [3], 95%; in assay [4] it was 86%.

For the compound `Cc1ccc(/C=C/Cn2c3c(c4cc(Cl)ccc42)CN(C)CC3)cn1` [Compound 125, 8-chloro-2,3,4,5-tetrahydro-2-methyl-5-((E)-3-(6-methylpyridin-3-yl)allyl)-1H-pyrido[4,3-b]indole], the inhibition at 1 µM in assay [1] was 62%; in assay [2] (setting [5]), 51%; in assay [3], 97%; in assay [4], 77%.

As for `C/C(=C\n1c2c(c3cc(Cl)ccc31)CN(C)CC2)c1ccc(C)nc1` [Compound 89, (E)-8-chloro-2,3,4,5-tetrahydro-2-methyl-5-(2-(6-methylpyridin-3-yl)prop-1-enyl)-1H-pyrido[4,3-b]indole], the inhibition at 1 µM came to 67% in assay [1], 87% in assay [2] (setting [5]), 101% in assay [3] and 98% in assay [4].

Consider `Cc1ccc2c(c1)c1c(n2CC(C)(O)c2cccnc2)CCN(C)C1` (stereo not drawn) [Compound 60, 1-(1,2,3,4-tetrahydro-2,8-dimethylpyrido[4,3-b]indol-5-yl)-2-(pyridin-3-yl)propan-2-ol], for which the inhibition at 1 µM in assay [1] was 50%; in assay [2] (setting [5]), 33%; in assay [3] it was 78%; in assay [4], 86%.

As to `COc1ccc(/C(C)=C/n2c3c(c4cc(Cl)ccc42)CN(C)CC3)cc1` [Compound 92, (E)-8-chloro-2,3,4,5-tetrahydro-5-(2-(4-methoxyphenyl)prop-1-enyl)-2-methyl-1H-pyrido[4,3-b]indole], the inhibition at 1 µM in assay [1] was 97%; in assay [2] (setting [5]), 99%; in assay [3] it was 100%; in assay [4], 91%.

As for `CN1CCc2c(c3cc(Cl)ccc3n2C/C=C/c2ccc(F)cc2)C1` [Compound 126, 5-(4-fluorocinnamyl)-8-chloro-2,3,4,5-tetrahydro-2-methyl-1H-pyrido[4,3-b]indole], the inhibition at 1 µM in assay [1] was 95%; in assay [2] (setting [5]), 50%; in assay [3], 102%; in assay [4], 84%.

`COc1ccc(C(C)(O)Cn2c3c(c4cc(Cl)ccc42)CN(C)CC3)cc1F` (stereo not drawn) [Compound 59, 1-(8-chloro-1,2,3,4-tetrahydro-2-methylpyrido[4,3-b]indol-5-yl)-2-(3-fluoro-4-methoxyphenyl)propan-2-ol]: the inhibition at 1 µM in assay [1] came to 54%; in assay [2] (setting [5]) it was 81%; in assay [3], 96%; in assay [4], 99%.

For the compound `CN1CCc2c(c3cc(Cl)ccc3n2CC(C)(O)c2ccncc2)C1` (stereo not drawn) [Compound 63, 1-(8-chloro-1,2,3,4-tetrahydro-2-methylpyrido[4,3-b]indol-5-yl)-2-(pyridin-4-yl)propan-2-ol], the inhibition at 1 µM in assay [1] was determined as 73%; in assay [2] (setting [5]), 84%; in assay [3], 95%; in assay [4], 95%.

Turning to `Cc1ccc2c(c1)c1c(n2CC(O)c2cccnc2)CCN(C)C1` (stereo not drawn) [Compound 54, 2-(1,2,3,4-tetrahydro-2,8-dimethylpyrido[4,3-b]indol-5-yl)-1-(pyridin-3-yl)ethanol], the inhibition at 1 µM was found to be 31% in assay [1], 15% in assay [2] (setting [5]), 42% in assay [3] and 22% in assay [4].

For the compound `CN1CCc2c(c3cc(Cl)ccc3n2C#Cc2ccc(F)cc2)C1` [Compound No. 475, 8-chloro-5-((4-fluorophenyl)ethynyl)-2-methyl-2,3,4,5-tetrahydro-1H-pyrido[4,3-b]indole], the inhibition at 1 µM in assay [1] was found to be 99%; in assay [2] (compound at 1 μM, read-out: Inhibition of ligand binding, Adrenergic α1D (percent inhibition of specific binding)) it was 91%; in assay [3], 99%; in assay [4], 96%.

Consider `Cc1ccc(C(C)(O)Cn2c3c(c4cc(Cl)ccc42)CN(C)CC3)cn1` (stereo not drawn) [Compound 47, 1-(8-chloro-1,2,3,4-tetrahydro-2-methylpyrido[4,3-b]indol-5-yl)-2-(6-methylpyridin-3-yl)propan-2-ol], for which the inhibition at 1 µM in assay [1] is 39%; in assay [2] (setting [5]) it was 82%; in assay [3], 84%; in assay [4], 81%.

`Cc1ccc2[nH]c3c(c2c1)CN(C)CC3` [Compound 3, 2,8-Dimethyl-2,3,4,5-tetrahydro-1H-pyrido[4,3-b]indole]: the inhibition at 1 µM in assay [1] was 58%; in assay [2] (read-out: Inhibition of ligand binding, Adrenergic α1D), 42%; in assay [4], 96%.

With `Cc1ccc2c(c1)c1c(n2CC(C)(O)c2ccc(F)cc2)CCN(C)C1` (stereo not drawn) [Compound 55, 2-(4-fluorophenyl)-1-(1,2,3,4-tetrahydro-2,8-dimethylpyrido[4,3-b]indol-5-yl)propan-2-ol], the inhibition at 1 µM in assay [2] (setting [5]) stood at 64%; in assay [3] it was 100%; in assay [4], 93%.
